From ChEMBL document CHEMBL4616680, “Shedding X-ray Light on the Role of Magnesium in the Activity of Mycobacterium tuberculosis Salicylate Synthase (MbtI) for Drug Design” (J Med Chem, 2020) come the findings set out here.

Experiment [1] has as its system Mycobacterium tuberculosis. As to the kind of experiment: Inhibition of myco-bactins production in Mycobacterium bovis BCG at 250 to 1000 mM by universal CAS assay. It is filed as functional, organism-based. The settings on record: variant bovis BCG.
Experiment [2] deals with Mycobacterium tuberculosis. Description: Inhibition of siderophore production in Mycobacterium bovis BCG at 250 to 1000 mM incubated for 15 days by universal CAS assay. The settings on record: variant bovis BCG. It counts as functional, organism-based.

Active and inactive are the calls of the source. No cut-off for these calls is given here.

As to `N#Cc1cccc(-c2ccc(C(=O)O)o2)c1`, the inhibition result in experiment [1] and in experiment [2] was “Active” in each case.
